# Source: patent publication US6548517B2, “Oxindole inhibitors of factor Xa” (Millennium Pharmaceuticals, Inc., priority 2000, dated 2003)
# Key:
# Format in all cases: biochemical
# factor Xa = factor Xa (Homo sapiens, UniProt P00742); assay: factor Xa amidolytic assay (chromogenic substrate S-2765)
# Experimental: (§1) The compounds of the present invention are dissolved in buffer to give solutions containing concentrations such that assay concentrations range from 0 to 100 μM. In the assays for thrombin, prothrombinase and factor Xa, a synthetic chromogenic substrate is added to a solution containing test compound and the enzyme of interest and the residual catalytic activity of that enzyme is determined spectrophotometrically. The IC50 of a compound is determined from the substrate turnover. The IC50 is the concentration of test compound giving 50% inhibition of: the substrate turnover.
# (§2) The factor Xa and thrombin assays were performed at room temperature, in 0.02 M TrisHCl buffer, pH 7.5, containing 0.15 M NaCl. The rates of hydrolysis of the para-nitroanilide substrate S-2765 (Chromogenix) for factor Xa, and the substrate Chromozym TH (Boehringer Mannheim) for thrombin following preincubation of the enzyme with inhibitor for 5 minutes at room temperature, and were determined using the Softmax 96-well plate reader (Molecular Devices), monitored at 405 nm to measure the time dependent appearance of p-nitroaniline.
# thrombin = target: T1, thrombin (Homo sapiens, UniProt P00734); assay: thrombin amidolytic assay (Chromozym TH); details: read-out: IIA IC50
# T1 construct: proteolytic cleavage of its precursor prothrombin at the Arg-Thr linkage at positions 271-272 and the Arg-Ile linkage at positions 320-321
# Experimental: as §1, §2
# prothrombinase complex = prothrombinase complex (Homo sapiens, UniProt P00742); assay: prothrombinase inhibition assay, plasma free system; details: read-out: IIASE IC50
# Chain of prothrombinase complex (P00742 235-488 limits assumed): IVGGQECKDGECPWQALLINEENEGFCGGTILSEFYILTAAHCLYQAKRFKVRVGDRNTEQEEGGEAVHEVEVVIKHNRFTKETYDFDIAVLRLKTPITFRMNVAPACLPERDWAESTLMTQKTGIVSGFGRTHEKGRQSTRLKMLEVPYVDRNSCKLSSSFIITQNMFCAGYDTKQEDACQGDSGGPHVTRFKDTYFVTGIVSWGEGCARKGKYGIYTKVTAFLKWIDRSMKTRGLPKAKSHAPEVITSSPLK
# Chain of prothrombinase complex (P00742 41-179 limits assumed): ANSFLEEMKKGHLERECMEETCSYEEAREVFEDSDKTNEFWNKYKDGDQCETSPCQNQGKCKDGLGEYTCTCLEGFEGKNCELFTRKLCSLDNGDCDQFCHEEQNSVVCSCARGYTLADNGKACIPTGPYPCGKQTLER
# Chain of prothrombinase complex (P12259 29-737 partner limits assumed): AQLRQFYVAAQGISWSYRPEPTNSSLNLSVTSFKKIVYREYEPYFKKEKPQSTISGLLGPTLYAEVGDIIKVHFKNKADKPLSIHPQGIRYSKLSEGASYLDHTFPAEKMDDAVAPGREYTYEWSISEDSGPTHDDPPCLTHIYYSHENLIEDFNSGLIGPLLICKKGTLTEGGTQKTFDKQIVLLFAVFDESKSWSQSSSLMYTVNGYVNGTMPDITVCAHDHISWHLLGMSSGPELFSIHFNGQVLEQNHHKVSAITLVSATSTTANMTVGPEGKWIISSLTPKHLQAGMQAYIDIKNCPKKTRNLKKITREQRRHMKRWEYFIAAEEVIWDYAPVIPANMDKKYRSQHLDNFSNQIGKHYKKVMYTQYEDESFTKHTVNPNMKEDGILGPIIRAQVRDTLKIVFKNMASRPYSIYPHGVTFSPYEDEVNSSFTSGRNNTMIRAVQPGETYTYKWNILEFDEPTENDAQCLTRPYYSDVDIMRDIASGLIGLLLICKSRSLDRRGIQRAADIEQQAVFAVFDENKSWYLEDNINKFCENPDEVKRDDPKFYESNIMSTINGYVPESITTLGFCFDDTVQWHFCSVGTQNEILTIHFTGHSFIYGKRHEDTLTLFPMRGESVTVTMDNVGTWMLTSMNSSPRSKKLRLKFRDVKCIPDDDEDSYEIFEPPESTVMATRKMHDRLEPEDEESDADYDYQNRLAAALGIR
# Chain of prothrombinase complex (P12259 1574-2224 partner limits assumed): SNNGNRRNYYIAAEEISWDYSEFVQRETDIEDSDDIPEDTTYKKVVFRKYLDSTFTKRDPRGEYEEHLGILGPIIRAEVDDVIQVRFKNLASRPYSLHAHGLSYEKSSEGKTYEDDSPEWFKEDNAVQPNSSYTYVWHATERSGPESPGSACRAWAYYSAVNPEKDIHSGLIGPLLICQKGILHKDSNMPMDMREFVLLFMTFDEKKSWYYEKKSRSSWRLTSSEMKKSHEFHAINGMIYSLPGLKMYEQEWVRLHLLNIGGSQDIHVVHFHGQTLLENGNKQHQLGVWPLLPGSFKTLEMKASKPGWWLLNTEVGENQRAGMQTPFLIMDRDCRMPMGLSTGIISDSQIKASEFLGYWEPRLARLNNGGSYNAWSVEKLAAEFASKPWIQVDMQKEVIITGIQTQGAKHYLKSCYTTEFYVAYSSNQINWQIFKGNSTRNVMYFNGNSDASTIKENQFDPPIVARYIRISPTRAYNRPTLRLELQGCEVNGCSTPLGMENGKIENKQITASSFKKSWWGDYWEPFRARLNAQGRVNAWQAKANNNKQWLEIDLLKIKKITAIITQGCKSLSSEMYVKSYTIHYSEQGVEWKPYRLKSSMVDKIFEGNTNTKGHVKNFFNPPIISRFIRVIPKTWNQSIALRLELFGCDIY
# Experimental: as §1
# The prothrombinase inhibition assay was performed in a plasma free system with modifications to the method described by Sinha, U. et al., Thromb. Res., 75, 427-436 (1994). Specifically, the activity of the prothrombinase complex was determined by measuring the time course of thrombin generation using the p-nitroanilide substrate Chromozym TH. The assay consists of preincubation (5 minutes) of selected compounds to be tested as inhibitors with the complex formed from factor Xa (0.5 nM), factor Va (2 nM), phosphatidyl serine:phosphatidyl choline (25:75, 20 μM) in 20 mM TrisHCI buffer, pH 7.5, containing 0.15 M NaCl, 5 mM CaCl2 and 0.1% bovine serum albumin. Aliquots from the complex-inhibitor mixture were added to prothrombin (1 nM) and Chromozym TH (0.1 mM). The rate of substrate cleavage was monitored at 405 nm for two minutes. Eight different concentrations of inhibitor were assayed in duplicate. A standard curve of thrombin generation by an equivalent amount of untreated complex was used for determination of percent inhibition.
# TRYPSIN = target: T2, TRYPSIN (Bos taurus, UniProt P00760); assay: trypsin protease inhibition assay
# T2 construct: gene PRSS1
# T2 sequence (P00760 24-246): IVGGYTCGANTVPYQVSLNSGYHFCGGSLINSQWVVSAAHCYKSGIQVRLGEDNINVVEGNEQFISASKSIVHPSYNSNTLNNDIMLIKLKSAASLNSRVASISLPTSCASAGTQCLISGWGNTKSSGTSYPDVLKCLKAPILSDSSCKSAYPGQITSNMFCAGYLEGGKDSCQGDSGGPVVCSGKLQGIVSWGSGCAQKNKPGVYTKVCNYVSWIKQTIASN
# TPA = TPA (Homo sapiens, UniProt P00750); assay: TPA protease inhibition assay
# Chain of TPA (P00750 36-562, species assumed): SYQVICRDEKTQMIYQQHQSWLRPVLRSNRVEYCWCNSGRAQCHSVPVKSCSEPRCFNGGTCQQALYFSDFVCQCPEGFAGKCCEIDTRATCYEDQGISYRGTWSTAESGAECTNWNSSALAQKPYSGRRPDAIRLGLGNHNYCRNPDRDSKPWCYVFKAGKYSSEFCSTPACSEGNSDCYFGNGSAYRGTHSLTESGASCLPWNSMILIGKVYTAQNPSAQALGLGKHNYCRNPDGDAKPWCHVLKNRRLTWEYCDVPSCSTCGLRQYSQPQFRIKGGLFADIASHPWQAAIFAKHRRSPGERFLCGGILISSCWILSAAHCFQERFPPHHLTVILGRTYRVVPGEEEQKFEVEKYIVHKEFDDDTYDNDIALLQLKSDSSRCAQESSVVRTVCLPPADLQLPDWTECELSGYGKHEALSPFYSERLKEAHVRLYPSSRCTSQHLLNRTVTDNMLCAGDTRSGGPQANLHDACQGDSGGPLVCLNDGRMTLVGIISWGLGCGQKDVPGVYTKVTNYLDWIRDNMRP
# APC = APC (Homo sapiens, UniProt P04070); assay: APC protease inhibition assay
# Chain of APC (P04070 212-461 limits assumed): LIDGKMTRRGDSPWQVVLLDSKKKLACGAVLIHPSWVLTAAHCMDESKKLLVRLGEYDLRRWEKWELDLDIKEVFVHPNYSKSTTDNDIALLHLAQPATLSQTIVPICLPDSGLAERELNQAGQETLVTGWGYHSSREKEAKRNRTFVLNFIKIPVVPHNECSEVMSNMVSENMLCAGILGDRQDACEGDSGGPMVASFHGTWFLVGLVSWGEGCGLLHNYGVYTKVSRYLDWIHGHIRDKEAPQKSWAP
# Chain of APC (P04070 43-197 limits assumed): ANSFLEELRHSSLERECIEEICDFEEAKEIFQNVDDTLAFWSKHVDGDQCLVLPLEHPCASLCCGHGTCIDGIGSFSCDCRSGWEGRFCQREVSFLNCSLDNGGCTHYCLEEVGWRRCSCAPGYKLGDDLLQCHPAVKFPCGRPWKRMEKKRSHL
# PLASMIN = PLASMIN (Homo sapiens, UniProt P00747); assay: plasmin protease inhibition assay
# Chain of PLASMIN (P00747 581-810 limits assumed, species assumed): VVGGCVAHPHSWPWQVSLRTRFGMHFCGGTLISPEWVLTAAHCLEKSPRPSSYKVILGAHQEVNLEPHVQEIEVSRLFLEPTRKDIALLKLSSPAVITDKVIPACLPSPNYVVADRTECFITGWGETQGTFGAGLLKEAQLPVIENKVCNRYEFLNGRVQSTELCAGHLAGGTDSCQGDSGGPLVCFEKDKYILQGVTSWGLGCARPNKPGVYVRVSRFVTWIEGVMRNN
# Chain of PLASMIN (P00747 97-580 limits assumed, species assumed): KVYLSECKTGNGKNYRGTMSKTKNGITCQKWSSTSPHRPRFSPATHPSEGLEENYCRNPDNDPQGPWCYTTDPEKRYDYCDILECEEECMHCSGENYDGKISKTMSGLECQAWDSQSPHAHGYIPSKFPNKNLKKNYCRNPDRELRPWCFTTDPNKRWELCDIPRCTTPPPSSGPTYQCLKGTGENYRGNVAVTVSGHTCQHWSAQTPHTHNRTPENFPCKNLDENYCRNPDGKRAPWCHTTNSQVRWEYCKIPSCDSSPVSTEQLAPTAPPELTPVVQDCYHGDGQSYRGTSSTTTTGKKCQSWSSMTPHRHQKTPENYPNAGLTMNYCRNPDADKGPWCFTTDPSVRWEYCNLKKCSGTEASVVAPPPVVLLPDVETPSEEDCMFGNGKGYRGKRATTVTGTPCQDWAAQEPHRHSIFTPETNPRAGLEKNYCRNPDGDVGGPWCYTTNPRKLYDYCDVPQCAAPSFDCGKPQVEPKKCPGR
# KALLIKREIN = assay: kallikrein protease inhibition assay
# Chain of factor Xa (P00742 235-488 limits assumed): as the sequence (P00742 235-488 limits assumed) above
# Chain of factor Xa (P00742 41-179 limits assumed): as the sequence (P00742 41-179 limits assumed) above
IC50 (factor Xa),IC50 (thrombin),IC50 (prothrombinase complex),IC50 (TRYPSIN),IC50 (TPA),IC50 (APC),IC50 (PLASMIN),IC50 (KALLIKREIN),SMILES
13 nM,72.5 µM,504 nM,62.1 nM,18.3 µM,5180 nM,2460 nM,307 nM,CC(=N)N1CCC(Oc2ccc3c(c2)CC(=O)N3Cc2ccc3ccc(C(=N)N)cc3c2)CC1 [Example 1]
40.2 nM,6.97 µM,163 nM,13.5 nM,17.9 µM,848 nM,2210 nM,606 nM,CC(=N)N1CCC(Oc2ccc3c(c2)C(C)(C)C(=O)N3Cc2ccc3ccc(C(=N)N)cc3c2)CC1 [Example 4]
72.5 nM,4.53 µM,264 nM,6.39 nM,19.5 µM,683 nM,1410 nM,535 nM,CC1(C)C(=O)N(Cc2ccc3ccc(C(=N)N)cc3c2)c2ccc(OC3CCN(C(=N)N)CC3)cc21 [Example 5]
15.1 nM,19.5 µM,19.8 nM,17.6 nM,28.5 µM,3060 nM,880 nM,304 nM,CC(C)=C1C(=O)N(Cc2ccc3ccc(C(=N)N)cc3c2)c2ccc(OC3CCN(C(=N)N)CC3)cc21 [Example 6]
28.4 nM,4.26 µM,116 nM,3.47 nM,27.9 µM,549 nM,734 nM,440 nM,CC(C)C1C(=O)N(Cc2ccc3ccc(C(=N)N)cc3c2)c2ccc(OC3CCN(C(=N)N)CC3)cc21 (stereo not shown) [Example 7]
18.7 nM,4.71 µM,36.3 nM,4.92 nM,18.1 µM,389 nM,628 nM,334 nM,CC(=N)N1CCC(Oc2ccc3c(c2)C(C(C)C)C(=O)N3Cc2ccc3ccc(C(=N)N)cc3c2)CC1 (stereo not shown) [Example 8]
2.82 nM,28 µM,8.4 nM,8.1 nM,26.6 µM,954 nM,319 nM,128 nM,CC(=N)N1CCC(Oc2ccc3c(c2)/C(=C/c2ccccc2)C(=O)N3Cc2ccc3ccc(C(=N)N)cc3c2)CC1 [Example 9]
5.92 nM,20 µM,19.3 nM,10.4 nM,38.5 µM,1550 nM,407 nM,201 nM,CC(=N)N1CCC(Oc2ccc3c(c2)/C(=C/c2ccc(F)cc2)C(=O)N3Cc2ccc3ccc(C(=N)N)cc3c2)CC1 [Example 10]
5.76 nM,16.1 µM,17.4 nM,30.3 nM,28.7 µM,1480 nM,309 nM,259 nM,CC(=N)N1CCC(Oc2ccc3c(c2)/C(=C/c2ccc(Cl)cc2)C(=O)N3Cc2ccc3ccc(C(=N)N)cc3c2)CC1 [Example 11]
17.4 nM,240 µM,117 nM,28.6 nM,62.1 µM,6660 nM,1250 nM,2420 nM,CC(=N)N1CCC(Oc2ccc3c(c2)/C(=C/C(=O)O)C(=O)N3Cc2ccc3ccc(C(=N)N)cc3c2)CC1 [Example 12]
53.6 nM,500 µM,90.4 nM,140 nM,37 µM,9940 nM,2130 nM,1590 nM,CC(=N)N1CCC(Oc2ccc3c(c2)C(CC(=O)O)C(=O)N3Cc2ccc3ccc(C(=N)N)cc3c2)CC1 (stereo not shown) [Example 13]
